According to the supplement of paper PMC10307832:

What was measured:
Experiment in all cases: relative viability (nuclei count vs DMSO), 5 days (fraction); higher = more cells survive
XMD13-2 + Trametinib = compound: C1CC1C(=O)NC2=NNC3=C2C=CC(=C3)C4=CC(=CC=C4)C(=O)NC5CC5 [XMD13-2] + CC(=O)Nc1cccc(-n2c(=O)n(C3CC3)c(=O)c3c(Nc4ccc(I)cc4F)n(C)c(=O)c(C)c32)c1 [Trametinib] (partner 0.02 µM)
Outline: (§1)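 Relative viability was taken as the ratio of nuclei in treated wells to nuclei in vehicle wells. Lung cancer cell lines in 1536-well plates received compounds by pin tool one day after seeding, either one drug alone or a fixed anchor-drug dose plus five library-drug doses (not always all listed) in √10 steps. Nuclei were counted on 4× images after 5 days of treatment, and values are medians of duplicate plates.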

ALW-II-49-7 + Bortezomib = compound: Cc1ccc(C(=O)Nc2cccc(C(F)(F)F)c2)cc1Nc1cncc(C(N)=O)c1 [ALW-II-49-7] + CC(C)C[C@H](NC(=O)[C@H](Cc1ccccc1)NC(=O)c1cnccn1)B(O)O [Bortezomib] (partner 0.002 µM)
Outline: as §1

ALW-II-49-7 + Tozasertib = compound: Cc1ccc(C(=O)Nc2cccc(C(F)(F)F)c2)cc1Nc1cncc(C(N)=O)c1 [ALW-II-49-7] + Cc1cc(Nc2cc(N3CCN(C)CC3)nc(Sc3ccc(NC(=O)C4CC4)cc3)n2)n[nH]1 [Tozasertib] (partner 0.1 µM)
Outline: as §1

Dasatinib + Bortezomib = compound: Cc1nc(Nc2ncc(C(=O)Nc3c(C)cccc3Cl)s2)cc(N2CCN(CCO)CC2)n1 [Dasatinib] + CC(C)C[C@H](NC(=O)[C@H](Cc1ccccc1)NC(=O)c1cnccn1)B(O)O [Bortezomib] (partner 0.002 µM)
Outline: as §1

| Cell Line | relative viability (XMD13-2 + Trametinib; first compound 0.05 µM) | relative viability (XMD13-2 + Trametinib; first compound 0.1581 µM) | relative viability (XMD13-2 + Trametinib; first compound 0.5 µM) | relative viability (XMD13-2 + Trametinib; first compound 1.581 µM) | relative viability (XMD13-2 + Trametinib; first compound 5 µM) | relative viability (ALW-II-49-7 + Bortezomib; first compound 0.08 µM) | relative viability (ALW-II-49-7 + Bortezomib; first compound 0.253 µM) | relative viability (ALW-II-49-7 + Bortezomib; first compound 0.8 µM) | relative viability (ALW-II-49-7 + Bortezomib; first compound 2.53 µM) | relative viability (ALW-II-49-7 + Bortezomib; first compound 8 µM) | relative viability (ALW-II-49-7 + Tozasertib; first compound 0.08 µM) | relative viability (ALW-II-49-7 + Tozasertib; first compound 0.253 µM) | relative viability (ALW-II-49-7 + Tozasertib; first compound 0.8 µM) | relative viability (ALW-II-49-7 + Tozasertib; first compound 2.53 µM) | relative viability (ALW-II-49-7 + Tozasertib; first compound 8 µM) | relative viability (Dasatinib + Bortezomib; first compound 0.005 µM) | relative viability (Dasatinib + Bortezomib; first compound 0.01581 µM) | relative viability (Dasatinib + Bortezomib; first compound 0.05 µM) | relative viability (Dasatinib + Bortezomib; first compound 0.1581 µM) | relative viability (Dasatinib + Bortezomib; first compound 0.5 µM) |
| --- | --- | --- | --- | --- | --- | --- | --- | --- | --- | --- | --- | --- | --- | --- | --- | --- | --- | --- | --- | --- |
| NCI-H1355 | 0.544 | 0.428 | 0.457 | 0.42 | 0.428 | 0.983 | 1.26 | 1.23 | 1.2 | 1.08 | 0.523 | 0.519 | 0.445 | 0.404 | 0.434 | 1.12 | 1.11 | 1.06 | 0.981 | 0.779 |
| NCI-H1648 | 0.526 | – | 0.454 | 0.55 | 0.374 | – | – | – | – | – | 0.382 | 0.236 | 0.243 | 0.313 | 0.382 | – | – | – | – | – |
| SK-MES-1 | 0.576 | 0.532 | 0.508 | 0.508 | 0.58 | – | – | – | – | – | 0.878 | 0.986 | 0.843 | 0.844 | 0.568 | – | – | – | – | – |
| EKVX | 0.383 | 0.341 | 0.248 | – | 0.299 | 1.08 | 0.919 | 0.835 | 0.424 | 1.04 | 0.323 | 0.413 | 0.344 | 0.322 | 0.381 | 0.929 | 0.807 | 0.87 | 0.501 | 0.146 |
| RERF-LC-KJ | 0.984 | 0.83 | 0.889 | 0.8 | 0.782 | 0.861 | 1.36 | 1.06 | 0.813 | 1.14 | 0.442 | 0.524 | 0.461 | 0.506 | 0.321 | 1.1 | 0.765 | 0.965 | 0.955 | 0.77 |
